Test results: article PMC12196476, “New Nitrogen-, Oxygen-, and Sulfur-Containing Heterocyclic Compounds as Anti-Colon Cancer Agents: Synthesis, Multitargeted Evaluations, Molecular Docking Simulations and ADMET Predictions” (Pharmaceuticals, 2025)

Assays:
[1] = DPPH radical scavenging assay; settings: three independent experiments; read-out: Mean IC50 (mM) for initial DPPH radicals ± SD
Experimental: The antioxidant activities of the studied compounds were assessed using the 1,1-diphenyl-2-picrylhydrazyl (DPPH) radical scavenging method as detailed by Bersuder et al.. The results were expressed as IC50 (mM)—the concentration of the test compound required to neutralize 50% of DPPH radicals.
The antioxidant efficiencies of target compounds were determined using the 1,1-diphenyl-2-picrylhydrazyl (DPPH) radical scavenging method as detailed by Bersuder et al.. […]
S3.2. Evaluation of Biological Activities.
S3.2.1. In vitro DPPH radical scavenging assay.
The antioxidant efficiencies of compounds—3a−e, 8, 9a−c, 13, 14, 17, 18a−h, 20, 22, 23, and 25—were
determined using the 1,1-diphenyl-2-picrylhydrazyl (DPPH) radical scavenging method as
detailed by Bersuder et al.. Fundamentally, the purple color of the stabilized DPPH radical
fades in the presence of an antioxidant, thus, the change of absorbance can be followed
spectrophotometrically at 519 nm. In the assay, equal volumes (0.5 mL) of DPPH ethanolic solution
and each compound (0-2 mg/mL in DMSO) or butylated hydroxytoluene (BHT) as the reference
were mixed well by shaking. The negative control consisted of the same amount of DMSO and
DPPH solution. After, incubation all mixtures at room temperature in the dark for one hour, the
absorbance of the residual DPPH radicals was measured at 519 nm using the UV‐vis
spectrophotometer. The DPPH radical scavenging activity of each compound (%) was calculated
Scavenging activity = (1 − Acompound/AControl) * 100, where Acompound and Acontrol the absorbance values
of each tested compound (or BHT) and the negative control, respectively. The half maximal
inhibitory concentration (IC50) for each compound in mg/mL was deduced by graphing the dose-
response curve relating the scavenging activity (%) to the compound concentration. Data points
represent the mean ± standard deviation (SD) of three independent determinations.

PDK-1 = PDK-1 (Homo sapiens, UniProt Q15118); experiment: In vitro PDK-1 inhibition assay (Kinase-Glo luminescent kinase kit); assay type: biochemical; settings: 100 µg/mL, three replicates; for inhibition at 100 µg/mL: read-out: Mean Inhibition Percent ± SD, PDK-1
Sequence of PDK-1 (Q15118 29-436): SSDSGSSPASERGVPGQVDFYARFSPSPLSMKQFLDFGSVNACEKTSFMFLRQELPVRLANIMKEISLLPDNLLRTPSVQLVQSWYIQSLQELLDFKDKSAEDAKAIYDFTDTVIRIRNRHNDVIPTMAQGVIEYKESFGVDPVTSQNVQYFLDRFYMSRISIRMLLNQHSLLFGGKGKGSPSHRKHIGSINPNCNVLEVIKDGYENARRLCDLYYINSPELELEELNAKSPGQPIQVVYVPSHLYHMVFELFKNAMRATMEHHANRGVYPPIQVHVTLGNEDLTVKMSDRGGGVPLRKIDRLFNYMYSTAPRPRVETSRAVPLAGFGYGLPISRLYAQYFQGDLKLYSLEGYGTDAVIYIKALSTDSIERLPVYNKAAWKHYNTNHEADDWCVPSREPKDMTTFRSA
Experimental: Principally, the PDK-1 inhibitory activities were evaluated using the non-radioactive Kinase-Glo™ Luminescent Kinase Kit (Promega Corporation, Madison, WI, USA) following the instructions of the manufacturer.
S3.2.2. In vitro PDK-1 inhibition assay.
The PDK-1 inhibitory activities of the test compounds were evaluated using the non-radioactive
Kinase-Glo™ Luminescent Kinase kit (Promega Corporation, Madison, WI, USA), following the
manufacturer’s protocol. Briefly, 5 μL of assay buffer—containing 10 × 250 mM Tris-HCl, 50 mM
MgCl2, 5 mM ethyleneglycol-bis(β-aminoethylether)-N,N,N′,N′-tetraacetic acid (EGTA), 10 mM
ethylenedi- aminetetraacetic acid (EDTA), and 10 mM dithiothreitol (DTT)—was added to each
well of a 96-well plate, along with 25 μL of distilled water. Subsequently, 5 μL of each test
compound at various concentrations (50, 100, 200 and 300 μg/mL in 1% DMSO) was added to the
respective wells, except for the two control wells, which received 5 μL of either PBS buffer or 1%
DMSO. Then, 5 μL of pyruvate dehydrogenase E1 (PDH E1) protein (10 μM) and 5 μL of ATP
(10 μM) were added to each well. To initiate phosphorylation, 5 μL of PDK-1 (20 μM) in protein
buffer (1 mM MgCl2, 2000 mM KCl, 40 mM K3PO4) was added to all the wells except the control
wells, which received 5 μL of protein buffer instead. The plate was then mixed thoroughly and
incubated at 37 °C for 30 minutes. After incubation, 50 μL of kinase-Glo® reagent was added to each
well, followed by a 10-minute incubation at room temperature with gentle shaking to stabilize the
luminescent signal. Luminescence was then measured using a microplate reader.
The IC50 value—defined as the concentration of a compound required to reduce luminescence by
50%, compared to untreated control wells—was determined for each compound from the
corresponding dose–response curve generated by plotting PDK-1 inhibition (%) versus compound
concentration. Sodium dichloroacetate (SDA, 1000 μM) was used as a reference PDK-1inhibitor. […]

[2] = target: recombinant human LDHA protein (Homo sapiens, UniProt P00338); experiment: In vitro LDHA inhibitory assay (NADH consumption); assay type: biochemical; settings: 100 µg/mL, three replicates; for inhibition at 100 µg/mL: read-out: Mean Inhibition Percent ± SD, LDHA
Text: The LDHA inhibitory efficiencies were investigated on Spectramax M2 spectrofluorometer via measuring the amounts of the consumed NADH^40 using an NAD^+/NADH quantification kit. […]
S3.2.3. In vitro LDHA inhibitory assay.
The LDHA inhibitory activity of the test compounds was investigated using Spectramax M2
spectrofluorometer by measuring the amounts of the consumed NADH [42] employing
NAD+/NADH quantification kit. Briefly, the assay medium containing various concentrations of
each test compound (50, 100, 200 and 300 μg/mL) was incubated in assay medium composed of 20
mM of HEPES-K+ buffer (pH 7.2), 20 μM of NADH, 2 mM of pyruvate and 10 ng of purified
recombinant human LDHA protein for 10 min utes. The activity of LDHA would result in reduction
of pyruvate into lactate with concomitant oxidation of NADH to NAD +. Since NADH (reduced
LDHA, could be inversely quantified by monitoring the change in the intensity of the fluorescence
at 340 nm over a 10-minute period. The rate of the fluorescence change (slope) in treated samples
was compared to that obtained from negative control experiment (100 % enzymatic activity) to
determine the percentage of inhibition. The IC50 value—defined as the compound concentration
required to reduce the luminescence by 50%, compared to untreated control wells—was
determined for each compound from the corresponding dose–response curve generated by
plotting LDHA inhibition (%) against compound concentration.
was used as the reference LDHA inhibitor. […]

[3] = tested on: LoVo colon carcinoma cells; experiment: Cell viability, LDH release assay, LoVo; settings: 48 h; for viability at 100 µg/mL / IC50: Homo sapiens, LoVo; for viability at 100 µg/mL: read-out: Mean % of viable cells ± SD, LoVo, 100 µg/mL, 48 h, LDH release assay; for IC50: read-out: Mean IC50 Values in µM ± SD, LoVo cells
Experimental: (§1) The studied compounds were also screened for their cytotoxic effects on HCT-116 and LoVo colon carcinoma cells, as well as normal HUVECs, using the standard LDH assay at a concentration of 100 µg/mL.
(§2) The antiproliferative activities of the newly synthesized compounds 3a–e, 8, 9a–c, 13, 14, 17, 18a–h, 20, 22, 23 and 25 were examined on human colon HCT-116 and LoVo cell lines as well as HUVEC (American Type Culture Collection, Manassas, VA, USA). […]
(§3) S3.2.4. Cell culture and viability assay.
(§4) The cytotoxic activities of the newly synthesized compounds (3a-e, 8, 9a-c, 13, 14, 17, 18a-h, 20, 22,
(§5) 23, and 25) were examined on human colon cancer cell lines HCT-116 and Lovo (American Type
(§6) Culture Collection, USA). Various concentrations (50, 100, 200, and 400 μg/mL) of test compounds
(§7) were prepared in Dulbecco’s Modified Eagles Medium (PAN-Biotech, Barcelona, Spain),

[4] = tested on: HCT-116 colon carcinoma cells; experiment: Cell viability, LDH release assay, HCT-116; settings: for viability at 100 µg/mL / IC50: Homo sapiens, HCT-116, 48 h; for viability at 100 µg/mL: read-out: Mean % of viable cells ± SD, HCT-116, 100 µg/mL, 48 h, LDH release assay; for IC50: read-out: Mean IC50 Values in µM ± SD, HCT-116 cells
Experimental: as §1, §2, §3, §4, §5, §6, §7

[5] = Cell viability, LDH release assay, normal HUVECs; settings: human, normal HUVECs, Mean % of viable cells ± SD, HUVEC
Experimental: as §1, §2
(§8) medium served used as negative and positive controls, respectively. Percentages of viable cells […]
(§9) were calculated based on relative optical density (OD) values (at 550 nm) for compound-treated […]
(§10) wells (final concentration of 100 μg/mL), compared to the negative control, and expressed as mean value (%) ± SD from two replicates. Graphing dose-response curves representing the compound […]
(§11) concentration versus the percentages of viable cells was also conducted to deduce the half - […]
(§12) Additionally, the safety profiles of the studied compounds were assessed against normal cells […]
(§13) (HUVECs) at final concentration of 100 μg/mL . HUVECs were grown in Dulbecco’s Modified Eagle’s Medium supplemented with 10% FBS, 2 mM glutamine (Sigma Aldrich), 100 units/mL penicillin and […] streptomycin (Life Technologies; Paisley, UK). […]

HUVECs = experiment: Cell viability, LDH release assay, normal HUVECs; settings: 100 µg/mL, 48 h
Experimental: as §1, §2, §8, §9, §10, §11, §12, §13

Row | Compound | IC50 [1] [mM] | inhibition at 100 µg/mL (PDK-1) [%] | inhibition at 100 µg/mL [2] [%] | viability at 100 µg/mL [3] [%] | viability at 100 µg/mL [4] [%] | viability at 48 h, 100 µg/mL [5] [%] | IC50 [3] [µM] | IC50 [4] [µM] | Mean Inhibition Percent ± SD, PDK-1 (PDK-1) [%] | Mean Inhibition Percent ± SD, LDHA [2] [%] | Mean % of viable cells ± SD, LoVo ([3]; 100 µg/mL, LDH release assay) [%] | Mean % of viable cells ± SD, HCT-116 ([4]; 100 µg/mL, 48 h, LDH release assay) [%] | Mean % of viable cells ± SD, HUVEC (HUVECs) [%]
1 | COc1cc(OC)c(/C=N/n2c(C)nc3ccc(F)cc3c2=O)c(OC)c1 [Compound 18e, (E)-6-Fluoro-2-methyl-3-((2,4,6-trimethoxybenzylidene)amino)quinazolin-4(3H)-one] | 0.781 ± 0.046 | 30 ± 1 | 36.8 ± 1.91 | 88.7 ± 3.21 | 87.3 ± 2.08 | 83 ± 3.61 | – | – | – | – | – | – | –
2 | Cc1nc2ccc(F)cc2c(=O)n1/N=C/c1c(O)ccc2ccccc12 [Compound 18f, (E)-6-Fluoro-3-(((2-hydroxynaphthalen-1-yl)methylene)amino)-2-methylquinazolin-4(3H)-one] | 0.288 ± 0.029 | 52 ± 3.61 | 14.4 ± 1.41 | 73 ± 3.46 | 83 ± 3 | 83 ± 1.73 | – | – | – | – | – | – | –
3 | COc1ccc(/C=N/n2c(C)nc3ccc(F)cc3c2=O)cc1O [Compound 18g, (E)-6-Fluoro-3-((3-hydroxy-4-methoxybenzylidene)amino)-2-methylquinazolin-4(3H)-one] | 0.238 ± 0.006 | 66 ± 1.73 | 22.2 ± 1.13 | 74.7 ± 2.52 | 58.7 ± 3.06 | 88 ± 2.65 | – | – | – | – | – | – | –
4 | Cc1nc2ccc(F)cc2c(=O)n1/N=C/c1cccs1 [Compound 18h, (E)-6-Fluoro-2-methyl-3-((thiophen-2-ylmethylene)amino)quinazolin-4(3H)-one] | 0.379 ± 0.004 | 37 ± 3.61 | 18.9 ± 1.77 | 33 ± 4.24 | 37 ± 2 | 78 ± 2 | 479 ± 19.2 | 498 ± 12.6 | – | – | – | – | –
5 | CCOC(=O)c1sc(NC(=O)/C(=C/c2ccc(OC(C)=O)c(OC)c2)NC(=O)c2ccccc2)nc1C [Compound 20, Ethyl (Z)-2-(3-(4-Acetoxy-3-methoxyphenyl)-2-benzamido-acrylamido)-4-methylthiazole-5-carboxylate] | 0.745 ± 0.027 | 28.2 ± 1.06 | 16.9 ± 1.27 | 51 ± 2.83 | 49 ± 2.83 | 73 ± 2.75 | – | – | – | – | – | – | –
6 | COc1cc(C=C(NC(=O)c2ccccc2)c2n[nH]c(=S)o2)ccc1O [Compound 22, N-(2-(4-Hydroxy-3-methoxyphenyl)-1-(5-thioxo-4,5-dihydro-1,3,4-oxa-diazol-2-yl)vinyl)benzamide] | 0.65 ± 0.076 | 39.5 ± 2.12 | 27.2 ± 2.48 | 29.5 ± 2.12 | 40.5 ± 3.54 | 79 ± 2 | 437.3 ± 1.51 | 511 ± 5.61 | – | – | – | – | –
7 | COc1cc(/C=C(\NC(=O)c2ccccc2)C(=O)NNC(=S)Nc2ccccc2)ccc1O [Compound 23, N-(1-(4-Hydroxy-3-methoxyphenyl)-3-oxo-3-(2-(phenylcarbamothionyl)hydrazinyl)prop-1-en-2-yl)benzamide] | 1.21 ± 0.03 | 11 ± 1.41 | 34.4 ± 3.32 | 57.5 ± 2.12 | 23 ± 2.83 | 80 ± 1.92 | 444 ± 9.17 | 215.4 ± 1.25 | – | – | – | – | –
8 | N-(3-(2-(1-(2-((2,4-Dimethylphenyl)amino)-2-oxoethyl)-2-oxoindolin-3-ylidene)hydrazinyl)-1-(4-hydroxy-3-methoxyphenyl)-3-oxoprop-1-en-2-yl)benzamide [Compound 25] | 0.162 ± 0.023 | – | – | – | – | – | – | – | 13.30±1.84 | 40.50 ± 3.54 | 71.50 ± 3.54 | 79.00 ± 2.83 | 87.94 ± 2.33
